How the values were obtained:
P. gingivalis = assay: Bacterial survival after 20 sec blue light exposure in the presence of scavengers; assay type: cell-based, Porphyromonas gingivalis; conditions: P. gingivalis in PBS suspension, halogen lamp, 23 J/cm^2, scavengers 30 to 100 μM, relative to non-exposed control (FIG. 5C)
Experimental: (§1) Bacteria: P. gingivalis, F. nucleatum, S. mutans, S. faecalis, P. gingivalis and F. nucleatum were grown and incubated at 37° C. in an anaerobic jar at <1% O2 and 9-13% CO2. S. mutans and S. faecalis were grown and incubated under aerobic conditions at 37° C. All the strains were sub-cultured twice before exposure to light. The bacterial concentration following 24 h incubation was standardized by dilution with sterile broth to about 5×10^6 cfu.
(§2) Determination of bacterial survival: Following exposure of the bacteria in suspension to light, samples were diluted and applied to the agar plates. Survival of these bacteria were determined, as well as of the duplicates of single bacteria on agar, by counting cfu following incubation. P. gingivalis and F. nucleatum were cultured under anaerobic conditions and S. mutans and S. faecalis under aerobic conditions at 37° C. until bacterial colonies were visible (1-5 days). The percentage of surviving bacteria was calculated in relation to the control non-exposed samples under similar experimental conditions. Biofilm inhibition in the triplicates bacterial lawn samples was defined as a halo without colony growth appearing in the light-exposed areas. All experiments in which the results of the exposed samples differed from those of the control were repeated at least twice. […]

F. nucleatum = assay: as above; assay type: cell-based, Fusobacterium nucleatum; conditions: F. nucleatum in PBS suspension, halogen lamp, 23 J/cm^2, scavengers 30 to 100 μM, relative to non-exposed control (FIG. 5D)
Experimental: as §1, §2

CNC(=S)NC [DMTU, dimethylthiourea]
percent survival of bacteria (P. gingivalis): 48% | percent survival of bacteria (F. nucleatum): 63%

Reference: US8240312B2, “Method and means for exerting a phototoxic effect of visible light on microorganisms” (Osnat Feuerstein, priority 2004, dated 2012)
